From PMC3784021 (Analytical biochemistry, 2013)

Target: T1, AMSH (Associated Molecule with the SH3 domain of STAM) (Homo sapiens, UniProt O95630)
T1 sequence (O95630 219-424): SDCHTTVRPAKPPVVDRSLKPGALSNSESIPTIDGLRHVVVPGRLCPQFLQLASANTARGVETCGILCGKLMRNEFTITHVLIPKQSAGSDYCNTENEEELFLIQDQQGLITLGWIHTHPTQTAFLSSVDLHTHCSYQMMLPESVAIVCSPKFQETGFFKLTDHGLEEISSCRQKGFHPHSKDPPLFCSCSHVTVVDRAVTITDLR
Experiment: FRET deubiquitinase assay with Lys63-linked diubiquitin probe
Type: biochemical

IC50: 16.2 ± 3.1 µM
Structure (SMILES): CCN1C(=O)C=CC1=O [NEM, N-ethylmaleimide]
